In patent US20120245120A1, “ZINC SUCROSE OCTASULFATES, THEIR PREPARATION, AND PHARMACEUTICAL AND COSMETIC USES THEREOF” (PIERRE FABRE DERMO-COSMETIQUE, priority 2009, published 2012):

Tested on: keratinocyte cell lines HaCAT
Test: In vitro cell migration assay (Oris Cell Migration Assay kit)
Assay type: cell-based, human
Parameters: Average OD: scale not given here
Conditions: for % activity/TGFβ / % activity/negative control / Average OD: HaCaT migration
Procedure: The purpose of this study was to assess the effect of zinc sucrose octasulfate on cell migration of keratinocyte cell lines HaCAT, using an Oris Cell Migration Assay Kit (Platypus Technologies). This study was carried out in comparison with potassium sucrose octasulfate, and sodium sucrose octasulfate.
Spontaneously immortalized human keratinocyte cell line HaCaT, frequently referred to in literature as a standard model.
The protocol used for the cell migration study is based on the use of a 96-well Oris Cell Migration Assay kit (Platypus Technologies-TEBU), providing miniaturization and quantification of this cell process.
The principle of this assay is to investigate the cell migration towards the centre of the well of a 96-well plate. A stopper is placed in some wells, in order to create a detection zone of 2 mm in diameter. Then the stoppers are removed after the cells have well adhered to the surface around them, thus allowing the cells to migrate towards the detection zone. The plates without the stoppers and with the active substances are incubated at 37° C. for 24 hours in DMEM 0% SVF. Following this, the amount of cells located in the zone where the stopper was, is analyzed, in order to assess cell migration. A mask restricts visualization and reading to cells located in this zone only. For each condition, the average for 4 to 8 wells is calculated.
The results are expressed as OD (proportional to the amount of migrated cells).
Percent activity with regard to the negative control is calculated as: […]
Percent activity with regard to TGFβ is calculated as: […]

[1] = Experiment 1, 1 μM, 24 hours at 37° C., DMEM 0% SVF, OD proportional to amount of migrated cells
[2] = Experiment 2, 1 μM, 24 hours at 37° C., DMEM 0% SVF, OD proportional to amount of migrated cells
[3] = summary statement, no concentration given
[4] = Experiment 1, 5 ng/mL, 24 hours, positive control
[5] = Experiment 2, 5 ng/mL, 24 hours, positive control

| Compound | activity compared with the positive control TGFβ (in words) (1 μM vs TGFβ 5 ng/mL) | induction of keratinocyte migration (in words) (1 μM, both experiments) | % activity/TGFβ (Experiment 1, 1 μM, 24 hours) [%] | % activity/negative control (Experiment 1, 1 μM, 24 hours) [%] | Average OD [1] | % activity/TGFβ (Experiment 2, 1 μM, 24 hours) [%] | % activity/negative control (Experiment 2, 1 μM, 24 hours) [%] | Average OD [2] | induction of keratinocyte migration (in words) [3] | induction of keratinocyte migration (in words) (5 ng/mL, both experiments, positive control) | % activity/negative control [4] [%] | Average OD [4] | % activity/negative control [5] [%] | Average OD [5] | induction of keratinocyte migration (in words) (at the concentrations tested) |
| --- | --- | --- | --- | --- | --- | --- | --- | --- | --- | --- | --- | --- | --- | --- | --- |
| zinc sucrose octasulfate [SOS-Zn] | as active as the positive control TGFβ | induces cell migration reproducibly | 128.3 | 350.0 | 306.9 | 90.7 | 176.0 | 417.8 | induces keratinocyte migration |  |  |  |  |  |  |
| TGFβ: Positive control: TGFβ1, polypeptide growth factor |  |  |  |  |  |  |  |  |  | induces keratinocyte migration reproducibly | 294.9 | 258.6 | 183.8 | 436.3 |  |
| O=S(=O)([O-])OC[C@H]1O[C@@](COS(=O)(=O)[O-])(O[C@H]2O[C@H](COS(=O)(=O)[O-])[C@@H](OS(=O)(=O)[O-])[C@H](OS(=O)(=O)[O-])[C@H]2OS(=O)(=O)[O-])[C@@H](OS(=O)(=O)[O-])[C@@H]1OS(=O)(=O)[O-].[Na+].[Na+].[Na+].[Na+].[Na+].[Na+].[Na+].[Na+] [SOS-Na, Sodium sucrose octasulfate] |  |  | −34.6 | 32.6 | 28.6 | −47.1 | 59.9 | 142.3 | do not induce cell migration |  |  |  |  |  | do not induce keratinocyte migration |
| O=S(=O)([O-])OC[C@H]1O[C@@](COS(=O)(=O)[O-])(O[C@H]2O[C@H](COS(=O)(=O)[O-])[C@@H](OS(=O)(=O)[O-])[C@H](OS(=O)(=O)[O-])[C@H]2OS(=O)(=O)[O-])[C@@H](OS(=O)(=O)[O-])[C@@H]1OS(=O)(=O)[O-].[K+].[K+].[K+].[K+].[K+].[K+].[K+].[K+] [SOS-K, Potassium sucrose octasulfate] |  |  | 6.9 | 113.5 | 99.5 | 42.2 | 135.3 | 321.3 | do not induce cell migration |  |  |  |  |  | do not induce keratinocyte migration |
